Reference: patent publication US20240261302A1, “METHODS OF TREATING NEURODEGENERATIVE DISEASES OR CONDITIONS” (FloraScience Inc., priority 2023, published 2024)

Assays:
[1] = tested on: HT22 mt-GFP/mCherry-Parkin cells; test: Cell viability after RSL3 with/without FCCP (CyQUANT DNA-based assay, fluorescence microscopy), mt-GFP/mCherry-Parkin cells; set-up: species or system mouse; conditions: for protection against RSL3-induced cell death, no FCCP pretreatment: 16 hr; for protection against RSL3 after FCCP pretreatment (mitochondria-depleted cells): FCCP 5 μM 24 hr, then 16 hr
HT22 cells [2] = test: Ferroptosis Assay (RSL3-induced cell death, MTT); type: cell-based, mouse
Procedure: Ferroptosis Assay: HT22 cells were seeded at 3,000 cells/well in 96-well tissue culture plates in DMEM plus 10% FBS and 1% antibiotics. After 24 hr of plating, the cells were pretreated with different concentrations of test compounds or a vehicle control for 1 hr followed by coincubation with 50 nM RSL3 to induce the cell death cascade. After 16 hr of treatment, cell viability was measured by the MTT assay. Optical absorbance was measured at 570 nm on a SpectraMax M5 microplate reader. Samples were analyzed in eight to sixteen wells per independent experiment (n=8-16). Results were presented as the percentage of the controls with vehicle alone.

HT22 cells [3] = test: Cellular Lipid Peroxidation Measurement (C11-BODIPY); type: cell-based, mouse
Procedure: Lipid Peroxidation MeasurementsHT22 cells were seeded onto 96-well black walled plates at a density of 3,000 cells/well in DMEM supplemented with 10% FBS and 1% antibiotics. After the desired treatments, cells were labeled with 2.5 μM C11-BODIPY 581/591 (oxidized form Ex/Em=488/520 nm) at 37° C. for 2 hr. Experiments were performed according to the manufacturer's instructions. Fluorescence was measured on a SpectraMax M5 microplate reader. Data were normalized for total protein/well. Each condition was analyzed in twelve wells per independent experiment (n=12). Results were presented as the percentage of the controls with vehicle alone. Results were verified by live-cell imaging under a fluorescence microscope.

HT22 cells [4] = test: Mitochondrial Membrane Potential Assay (JC-10) in HT22 cells; type: cell-based, mouse; conditions: 50 nM, 4 hr
Procedure: Mitochondrial Membrane Potential Assay. Cells seeded at 5,000 cells/well onto 96-well black walled plates were treated with test compounds at the desired concentrations under the culture condition described above. The mitochondrial uncoupler FCCP at 2 μM was used as a reference control. After the desired treatments for 4 hr, the cells were subjected to a JC-10 mitochondrial membrane potential assay according to the manufacturer's instruction. Fluorescence intensities (Ex/Em=490/525 nm, and Ex/Em=540/590 nm) of each well were monitored on a SpectraMax M5 microplate reader. The ratio of fluorescence intensity (590/525 nm) was used to determine the mitochondrial membrane potential (ΔΨm). Decreasing ratios indicate mitochondrial membrane depolarization. Samples were analyzed in eight to sixteen wells per independent experiment (n=8-16). Results were verified by live-cell imaging under a fluorescence microscope.

HT22 cells [5] = test: MitoTracker Assay (mitochondrial mass); type: cell-based, mouse; conditions: 50 nM, vs control cells
Procedure: MitoTracker Assay. HT22 cells were seeded onto 96-well black walled plates at a density of 5,000 cells/well in DMEM supplemented with 10% FBS and 1% antibiotics. After the desired treatments, MitoTracker Orange CM−H2TMRos (Ex/Em=554/576 nm) and Hoechst 33342 (Ex/Em=360/460 nm) dyes were added to the cells and incubated under the same culture condition for 2 hr. Fluorescence was measured on a SpectraMax M5 microplate reader. Experiments were performed according to the manufacturer's instructions. Data were normalized for total protein/well. Each condition was analyzed in sixteen wells per independent experiment (n=16). Results were presented as the percentage of the controls with vehicle alone. Results were verified by live-cell imaging under a fluorescence microscope.

HT22 mt-GFP WT cells = test: Cell viability after RSL3 with/without FCCP (CyQUANT DNA-based assay, fluorescence microscopy), mt-GFP WT cells; set-up: species or system mouse
[6] = Cell-free, liposome-based assay of lipid peroxidation (STY-BODIPY); type: biochemical; conditions: test compounds 10 μM
Procedure: For the cell-free, liposome-based assay, STY-BODIPY (1.5 μM) and liposomes of egg-PC (1 mM) (Avanti Polar Lipids Inc, Cat #840051P, AL) in TBS (pH 7.4) were added to an opaque 96-well plate. This was followed by the addition of test compounds (10 μM). The plate was incubated for 30 min at 37° C. and then vigorously mixed for 5 min. The autoxidation was initiated by the addition of V-70 (0.5 mM) (Fujifilm Wako, Cat #001-70078, Japan), followed by additional mixing for 5 min. Data were acquired at Ex/Em=488/518 nm every 15 min at 37° C. on a SpectraMax M5 microplate reader. Data were transformed into [ox-STY-BODIPY] by taking the raw fluorescent values of the saturated curve of control DMSO and dividing them by the initial concentration of reduced STY-BODIPY ([…]). Samples were analyzed in quadruplicate in four independent experiments (n=4).

[7] = Cell viability after RSL3 with/without FCCP (CyQUANT DNA-based assay, fluorescence microscopy), mt-GFP WT cells; set-up: species or system mouse; conditions: mouse, HT22 mt-GFP WT cells, FCCP treatment 40 hr, read-out: decrease in cell viability compared to the vehicle control
[8] = Cell viability after RSL3 with/without FCCP (CyQUANT DNA-based assay, fluorescence microscopy), mt-GFP/mCherry-Parkin cells; set-up: species or system mouse; conditions: mouse, HT22 mt-GFP/mCherry-Parkin cells, FCCP treatment 40 hr, read-out: decrease in cell viability compared to the vehicle control
HT22 cells [9] = test: Oxytosis Assay (glutamate-induced cell death, MTT); type: cell-based, mouse; conditions: 5 mM, 16 hr, vs control group
Procedure: Oxytosis Assay. HT22 cells were seeded at 3,000 cells/well in 96-well tissue culture plates in DMEM plus 10% FBS and 1% antibiotics. After 24 hr of plating, the cells were pretreated with different concentrations of the test compounds or a vehicle control for 1 hr followed by coincubation with 5 mM glutamate to initiate the cell death cascade. After 16 hr of treatment, cell viability was measured by the 3−(4,5-dimethylthiazol-2-yl)-2,5-diphenyltetrazolium bromide (MTT) assay. Optical absorbance was measured at 570 nm on a SpectraMax M5 microplate reader. Samples were analyzed in eight to sixteen wells per independent experiment (n=8-16). Results were presented as the percentage of the controls with vehicle alone.

HT22 cells [10] = test: Oxytosis/ferroptosis assay with erastin (Table 2); type: cell-based; conditions: Mus musculus, HT-22; erastin as inducer; method not given; read-out: Observed EC50 erastin

## COC1=C(OC)C(=O)C(CCCCCCCCCC[P+](c2ccccc2)(c2ccccc2)c2ccccc2)=C(C)C1=O [MitoQ]
[1]
  protection against RSL3-induced cell death, no FCCP pretreatment: effectively protected
  protection against RSL3 after FCCP pretreatment (mitochondria-depleted cells): showed no cytoprotection

## COC(=O)c1ccc([C@@H]2c3[nH]c4ccccc4c3C[C@@H](C(=O)OC)N2C(=O)CCl)cc1 [RSL3, reference compound]
HT22 cells [2]; 50 nM, 16 hr, vs control group
  cell death by inducer alone: 40-60%
HT22 cells [3]; 50 nM, 16 hr
  increase of cellular lipid peroxidation level: approximately 30%
HT22 cells [4]
  effect on ΔΨm: no impact
HT22 cells [5]
  decrease of MitoTracker intensity: 8.4%
HT22 mt-GFP WT cells
  cell viability in FCCP pretreated cells: 10-15%
[1]
  cell viability in FCCP pretreated cells: 10-15%

## CCOC(=O)c1ccc(NC2CCCCC2)c(N)c1 [ferrostatin]
HT22 cells [3]; 50 nM RSL3, 16 hr, p<0.0001
  RSL3-induced cellular lipid peroxidation: effectively suppressed
HT22 cells [3]; CBN 5 μM, ferrostatin 10 μM, 16 hr
  basal cellular lipid peroxidation, compound alone: neither CBN (5 μM) nor ferrostatin (10 μM) alone changed basal levels of lipid peroxidation
[6]
  inhibition of lipid peroxidation, cell-free: showed a potent effect against lipid peroxidation
[1]
  protection against RSL3-induced cell death, no FCCP pretreatment: effectively protected
  protection against RSL3 after FCCP pretreatment (mitochondria-depleted cells): rescued

## N#CC(C#N)=NNc1ccc(OC(F)(F)F)cc1 [FCCP, carbonyl cyanide-4-(trifluoromethoxy)phenylhydrazone, reference compound]
[7]
  cytotoxicity at 40 hr, 5 μM: ~40%
[8]
  cytotoxicity at 40 hr, 5 μM: ~40%

## N[C@@H](CCC(=O)O)C(=O)O [glutamate, reference compound]
HT22 cells [9]
  cell death by inducer alone: 40-60%

## CCCCCc1cc(O)c2c(c1)OC(C)(C)C1CC=C(C)CC21 (stereo not drawn) [D8-THC, 6,6,9-trimethyl-3-pentyl-6a,7,10,10a-tetrahydro-6H-benzo[c]chromen-1-ol]
HT22 cells [10]
  EC50: 2.6 µM
HT22 cells [2]; Mus musculus, HT-22, HT22 cells, 1 hr pretreatment, 50 nM RSL3, 16 hr, MTT, read-out: Observed EC50 RSL3
  EC50: 0.8 µM
